Measurements: US20210299150A1, “AP39 IMPACT ON MITOCHONDRIA, METABOLISM, GENE TRANSCRIPTION REGULATION, CARDIOTOXICITY PROTECTION AND CANCER TREATMENT” (priority 2020, published 2021)

Tests used:
[1] = tested on: SK-N-BE(2) and SK-N-BE(1) cell lines; conditions: previous study; cited from earlier work
[2] = tested on: H9C2 cells; test: Mitochondrial H2S levels (AzMAC) and morphology (mitotracker Red) in H9C2 cells; format: cell-based, Rat; conditions: H9C2, single agent vs control
From the text: Note that white arrow heads and yellow arrows compare and contrast no-H2S: fusion and H2S-presence: fission scenarios in the same image AP39 treatment lane.
Mitochondrial fission was correlated with H2S levels. To investigate the impact of Dox on mitochondrial biogenesis and mitochondrial H2S levels, H9C2 cells were used in combination with H2S sensitive dye AzMAC and mitotracker Red dye as reported previously^8. […] Further, H2S levels (yellow arrows) highly correlated with a dotted appearance of mitochondria, implying that H2S causes mitochondrial fission, which is a prerequisite for eliminating damaged mitochondria^49.

[3] = tested on: H9C2 cells; test: Mitochondrial ROS, MitoSox Red, H9C2; format: cell-based, Rat; conditions: H9C2, Dox alone
Description: AP39 treatment also ameliorated Dox toxicity in a model of Rat cardiomyoblast cell line, H9C2. […] There was a narrow window of protection, as 30 μM and 50 μm doses were not as strong as the 40 μM dose (FIGS. 5A and B) in conferring protection. […] Note that Dox caused an apoptotic phenotype in correlation with ROS levels (FIG. 5F, Dox lane). This in vitro AP39 protection is modest when compared to the in vivo scenario. This difference may be due to rapid clearance of toxic metabolites (for instance, higher lactate production, FIG. 10D) and better oxygen supply (AP39 stimulated OCR, FIG. 7C) in vivo and lack of such sophistication in vitro.

[4] = tested on: Myc/Max-regulated transcripts; test: RNAseq analysis in H9C2 cell line; format: cell-based, Rat; conditions: H9C2, Dox alone
Description: The coverage among groups are indicated.
Next, to interrogate mechanisms of AP39 protection against DIC, RNAseq analysis was performed. There was sufficient coverage of the whole transcriptome among the groups (FIG. 8A).

[5] = cited from earlier work
[6] = tested on: hiPSC-CMs; test: DIC in hiPSC-CMs (Annexin V, MitoSox Red); format: cell-based, human
[7] = tested on: SK-N-BE(2) neuroblastoma cell line; test: Cell viability (images, MTT) of SK-N-BE(2) neuroblastoma cell line; format: cell-based, human
Description: (§1) Methods for cell viability: Cells were plated in 96 wells/6 wells cell culture plates. After 24 hrs of plating, the treatments (added in the growth medium) were conducted. The following assays were performed after 24 hrs of the treatments (day 2). (FIGS. 15A, 17-20, 24-27)
(§2) MTT assay methods. For the MTT assay, […] of 5 mg/ml MTT-tetrazolium salts in PBS was added to each well containing the growth medium. After 3 hours of incubation, the medium was removed and the formazan crystals were dissolved by adding DMSO. The absorption of the formazan solution was measured using a spectrophotometer at a wavelength of 570 nm. FIGS. 15B, 21-22.
The SK-N-BE(2) neuroblastoma cell line was exposed to control, AP39 (AP) at 40 or 60 μM, Doxorubicin at 2.5 or 20 μM, thiolactate at 10 mM, AP39 and Doxorubicin, AP39 and thiolactate, or Doxorubicin and Thiolactate. […] FIGS. 17, 21, 24-25.

[8] = 13C-glucose isotope tracing and GC-MS metabolite quantification; format: cell-based
Description: Stable isotope (13C glucose) tracer studies. Heatmap.
To this end, 13C-glucose flux/isotope tracing and quantified metabolites through GC-MS were examined at 16 hrs and 24 hrs after the treatments. Glucose, glutamine and lactate were also measured in supernatants at these time points. […] With the exception of glycolytic metabolites, the remaining metabolic pathways (poor labeling) were non-operational after Dox treatment (FIG. 10A).
When considered AP39-mediated activation of AMPK, H2S is selectively halting energy consuming anabolic pathways, such as protein synthesis (also, lipid, AMPK inhibits […], a rate limiting lipid synthesizing enzyme, FIGS. 7A and B), as observed before^41, thus leading to accumulation of amino acids and is enhancing TCA cycle through AMPK activation. The net result is better energy management with AP39/H2S treatment.

[9] = tested on: MCF7 breast cancer cells; test: Cell viability (MTT, crystal violet) of MCF7 breast cancer cells; format: cell-based
Description: as §1, §2
Crystal Violet (CV) assay. For the CV Staining assay, cells were stained with 0.5% crystal violet in 30% ethanol for 10 minutes at room temperature after removal of the medium. The cells were lysed in a 1% SDS (sodium dodecyl sulfate) solution. The absorbance of the solution was measured using a spectrophotometer at a wavelength of 595 nm. FIG. 27.
MCF7 breast cancer cells were exposed to control, AP39 (AP) at 40 or 60 μM, Doxorubicin at 2.5 or 20 μM, thiolactate at 10 mM, AP39 and Doxorubicin, AP39 and thiolactate, or Doxorubicin and Thiolactate. […] FIGS. 26-27.

[10] = tested on: H1299 lung cancer cells; test: Cell viability of H1299 lung cancer cells; format: cell-based
Description: as §1, §2
H1299 lung cancer cells were exposed to control, AP39 (AP) at 40 or 60 μM, Doxorubicin at 2.5 or 20 μM, thiolactate at 10 mM, AP39 and Doxorubicin, AP39 and thiolactate, or Doxorubicin and Thiolactate. […] FIGS. 20-22.

[11] = tested on: A549 lung cancer cells; test: Cell viability of A549 lung cancer cells; format: cell-based
Description: as §1, §2
A549 lung cancer cells were exposed to control, AP39 (AP) at 40 or 60 μM, Doxorubicin at 2.5 or 20 μM, thiolactate at 10 mM, AP39 and Doxorubicin, AP39 and thiolactate, or Doxorubicin and Thiolactate. […] FIGS. 19 and 21.

[12] = tested on: 786-O cells renal cancer cells; test: Cell viability of 786-O renal cancer cells; format: cell-based
Description: as §1, §2
786-O cells renal cancer cells were exposed to control, AP39 (AP) at 40 or 60 μM, Doxorubicin at 2.5 or 20 μM, thiolactate at 10 mM, AP39 and Doxorubicin, AP39 and thiolactate, or Doxorubicin and Thiolactate. […] FIGS. 18 and 21.

[13] = AP39 40 or 60 μM, thiolactate 10 mM, 24 hrs
[14] = combination with Doxorubicin 2.5 μM

COc1cccc2c1C(=O)c1c(O)c3c(c(O)c1C2=O)C[C@@](O)(C(=O)CO)C[C@@H]3O[C@H]1C[C@H](N)[C@H](O)[C@H](C)O1 [Dox, Doxorubicin]
IC90 for SK-N-BE(2) relative to IC90 for SK-N-BE(1) [1]: 9230 times | mitochondrial H2S levels (AzMAC) [2]: significantly reduced mitochondrial H2S production | mitochondrial morphology (fission / fusion) [2]: mitochondrial fusion | mitochondrial ROS levels [3]: elevating damaging ROS levels | Myc transcription [4]: attenuated Myc transcription | late cardiac dysfunction incidence ([5]; after Dox treatment): 16% | sub-clinical disease rate ([5]; after Dox treatment): over 50% | Cumulative left ventricular systolic dysfunction (LVSD) incidence rate ([5]; within 18 months of Dox treatment): 12% | DIC in hiPSC-CMs at lower dose of Dox ([6]; 2.5 μM Dox, donor, data not showed): exhibited resistance to DIC | cell death in hiPSC-CMs ([6]; 7.5 μM Dox, 48 hrs): significant cell death | effective Dox dose ([7]; AP39 used along with Dox): 2.5 µM | IC70 of Dox ([7]; Dox alone, 24 hrs): 20 µM | Serine and glycine 13C labeling ([8]; 16 hrs and 24 hrs): highly labeled | abundance of most metabolites (GC-MS) ([8]; 24 hrs of Dox treatment): present in abundant amounts

CC(S)C(=O)O (stereo not drawn) [thiolactate, Thiolactate]
cell killing, agent alone [9, 13]: able to kill breast cancer cells | potency of low doses of Doxorubicin [9, 14]: able to increase the potency of low doses of Doxorubicin | cell killing, agent alone [10, 13]: able to kill lung cancer cells | potency of low doses of Doxorubicin [10, 14]: able to increase the potency of low doses of Doxorubicin | cell killing, agent alone [11, 13]: able to kill lung cancer cells | potency of low doses of Doxorubicin [11, 14]: able to increase the potency of low doses of Doxorubicin | cell killing, agent alone [12, 13]: able to kill renal cancer cells | potency of low doses of Doxorubicin [12, 14]: able to increase the potency of low doses of Doxorubicin | cell killing, agent alone [7, 13]: able to kill SK-N-BE(2) cells | potency of low doses of Doxorubicin [7, 14]: able to increase the potency of low doses of Doxorubicin
